Measured values: patent US4914086A, “Method for treating African human and veterinary trypanosomiases” (priority 1987, dated 1990)
“Also recorded” adds a separate entry of the source.

Legend:
[1] = tested on: T. b. brucei EATRO 110; experiment: Drug screen, acute EATRO 110 mouse infection (Tables 1, 3); format: in vivo, Trypanosoma brucei brucei (in Swiss-Webster mice)
Excerpt: (§1) T. b. brucei EATRO 110 isolate was maintained as described (Bacchi, C. J., H. C. Nathan, S. H. Hutner, P. P. McCann and A. Sjoerdsma; Polyamine metabolism: a potential chemotherapeutic target in trypanosomes. Science 210: 332-334, 1980). It produces an acute, rapidly fatal parasitemia which is lethal to mice 3-5 days after inoculation. Two T. B. brucei strains, TREU 667 and LUMP 1001 developed by Jennings and coworkers (Jennings, F. W., D. D. Whitelaw and G. M. Urquhart; The relationship between duration of infection with Trypanosoma brucei in mice and the efficacy of chemotherapy. Parasitology 75: 143-153, 1977/Jennings, F. W. and G. D. Gray; Relapsed parasitemia following chemotherapy of chronic T. brucei infections in mice and its relation to cerebral trypanosomes; Contr. Microbiol. Immunol. 7 147-154, 1983) were used as CNS models. Both produce infections which are refractory to Berenil® (diminazene aceturate) and develop within 21 days after inoculation. They are not usually fatal until >40 days after inoculation. LUMP 1001 causes a more virulent CNS infection than TREU 667, and is regarded as more difficult to cure (Jennings, F. W. and G. D. Gray. Relapsed parasitemia following chemotherapy of chronic T. brucei infections in mice and its relation to cerebral trypanosomes. Contr. Microbiol. Immunol. 7 147-154, 1983).
Swiss-Webster (25-30 g) mice were used throughout. In the EATRO 110 model, groups of 100 mice were infected (10^5 trypanosomes/mouse) and the infection was allowed to develop 24 hours before commencing therapy. Animals were divided into groups of 5 before treatment. Cured animals survived >30 days beyond deaths of controls. All compounds were administered by i.p. injection.
Other methods as in Table 1.

[2] = tested on: T. b. brucei TREU 667; experiment: CNS model, T. b. brucei TREU 667 infection in mice (Table 4); format: in vivo, Trypanosoma brucei brucei (in Swiss-Webster mice); settings: for efficacy in CNS model in words: TREU 667
Excerpt: as §1
The models for […] nervous system infections used TREU 667 and LUMP 1001 strains which were stored frozen and passaged once in rats before infection of mice. Maintenance and use of these screens were as described (Clarkson, A. B. Jr., C. J. Bacchi, G. H. Mellon, H. C. Nathan, P. P. McCann and A. Sjoerdsma. Efficacy of DFMO+blemoycin in a mouse model of central nervous system African trypanosomiasis. Proc. Natl. Acad. Sci. USA. 80: 5729-5733, 1983/Clarkson, A. B. Jr., E. J. Biene, C. J. Bacchi, P. P. McCann, S. H. Hutner and A. Sjoerdsma. New drug combination for experimental late stage African trypanosomiasis: DFMO with suramin. Am. J. Trop. Med. Hyg. 33: 1073-1077, 1984/Dube, D. K., G. Mpimbaza, A. C. Allison, E. Lederer and L. Rovis. Antitrypanosomal activity of sinefungin, Am. J. Trop. Med. Hyg. 32: 31-33, 1983/Fish, W. R., J. J. Marr, R. L. Berens, D. L. Looker, D. J. Nelson, S. LaFon and A. E. Balber. Inosine analogs as chemotherapeutic agents for African trypanosomes: metabolism in trypanosomes and efficacy in tissue culture. Anti-microb. Ag. Chemother. 27: 33-36, 1985/Clazer, R. I., and L. S. Lloyd. Effects of 8-azaadenosine and formycin on cell lethality and the synthesis and methylation of nucleic acids in human colon carcinoma cells in culture. Biochem. Pharmacol. 31: 3207-3214, 1982/Bacchi, C. J., H. C. Nathan, A. B. Clarkson, Jr., E. J. Bienen, A. J. Bitonti, P. P. McCann and A. Sjoerdsma. Activity of the ornithine decarboxylase inhibitors DL-α-difluoromethylornithine and monofluormethyldehydroornithine methylester alone and in combination with suramin against Trypanosoma brucei brucei central nervous system models, Am. J. Trop. Med. Hyg. (in press)). Briefly, groups of 100-120 mice were infected and the infections allowed to develop until day 21, when the animals were separated into groups of 10 and therapy commenced. Controls were treated with Berenil (40 mg/kg) on day 21. These always relapsed 40-70 days after treatment. Parasitemia was followed by examining tail vein blood smears once weekly. Animals which had relapsed were removed from cages. TREU 667 infections were followed >225 days after inoculation and LUMP 1001 were followed >280 days, as determined by the relapse pattern in previous work (Bacchi, C. J., H. C. Nathan, A. B. Clarkson, Jr., E. J. Bienen, A. J. Bitonti, P. P. McCann and A. Sjoerdsma. Activity of the ornithine decarboxylase inhibitors DL-α-difluoromethylornithine and monofluormethyldehydroornithine methylester alone and in combination with suramin against Trypanosoma brucei brucei central nervous system models. Am. J. Trop. Med. Hyg. (in press)). […]

[3] = tested on: mouse L cells; settings: cited from earlier work
[4] = tested on: mouse L cells; settings: cited from earlier work; remark: listed apart in the source
[5] = tested on: T. cruzi; settings: previous studies; cited from earlier work
[6] = tested on: African trypanosomes; settings: previous studies; cited from earlier work
[7] = tested on: T. B. gambiense; settings: cited from earlier work
[8] = tested on: mammalian cells; settings: cited from earlier work
[9] = tested on: T. brucei subsp.; settings: cited from earlier work
[10] = Table 1, 0.5 mg/kg i.p. once daily for 3 days
[11] = Table 1, 1 mg/kg i.p. once daily for 3 days
[12] = Table 1, 2.5 mg/kg i.p. (9-DINO, sinefungin once daily for 3 days)
[13] = Table 1, 5 mg/kg i.p. (9-DINO, sinefungin once daily for 3 days)
[14] = Table 1, 10 mg/kg i.p. (9-DINO, sinefungin once daily for 3 days)
[15] = Table 1, 25 mg/kg i.p. (9-DINO, sinefungin once daily for 3 days)
[16] = Table 3, 0.5 mg/kg i.p. once daily for 3 days
[17] = Table 3, 1.0 mg/kg i.p. once daily for 3 days
[18] = Table 3, 5 mg/kg i.p. once daily for 3 days
[19] = Table 3, 10 mg/kg i.p. once daily for 3 days
[20] = Table 3, 25 mg/kg i.p. once daily for 3 days
[21] = Table 1, 50 mg/kg i.p. (9-DINO, sinefungin once daily for 3 days)
[22] = Table 1, 100 mg/kg i.p. (9-DINO, sinefungin once daily for 3 days)
[23] = Table 1, 200 mg/kg i.p. once daily for 3 days
[24] = Table 1, 400 mg/kg i.p. once daily for 3 days

Compound: Nc1ncnc2c1ncn2[C@@H]1O[C@H](C[C@@H](N)CC[C@H](N)C(=O)O)[C@@H](O)[C@H]1O [Sinefungin, 6,9-Diamino-1-(6-amino-9H-purin-9-yl)-1,5,6,7,8,9-hexadeoxy-beta-D-ribo-decofuranuronic acid]
- % active ([1]; 25 mg/kg, single dose): 80%
- # Cured/Total [1, 10]: 0/15
- % Cured [1, 10]: 0%
- # Cured/Total [1, 11]: 0/20
- % Cured [1, 11]: 0%
- # Cured/Total [1, 12]: 0/5
- % Cured [1, 12]: 0%
- # Cured/Total [1, 13]: 9/15
- % Cured [1, 13]: 60%
- # Cured/Total [1, 14]: 8/15
- % Cured [1, 14]: 53%
- # Cured/Total [1, 15]: 4/5
- % Cured [1, 15]: 80%
- # Cured/Total [1, 16]: 0/15
- % Cured [1, 16]: 0%
- # Cured/Total [1, 17]: 0/20
- % Cured [1, 17]: 0%
- # Cured/Total [1, 18]: 9/15
- % Cured [1, 18]: 60%
- # Cured/Total [1, 19]: 8/15
- % Cured [1, 19]: 53%
- # Cured/Total [1, 20]: 4/5
- % Cured [1, 20]: 80%
- % effective ([1]; single doses of 5 or 10 mg/kg): ~ 50%
- activity in the acute (short term) EATRO 110 model, in words ([1]; text summary): less active than 9-DINO and Formycin B
- # Cured/Total ([2]; 2.5 mg/kg i.p., 4 days): 0/18
- % Cured ([2]; 2.5 mg/kg i.p., 4 days): 0%
- Avg. Day of Relapse (Range) ([2]; 2.5 mg/kg i.p., 4 days): 39 (35-56) Day
- # Cured/Total ([2]; 5 mg/kg i.p., 4 days): 0/10
- % Cured ([2]; 5 mg/kg i.p., 4 days): 0%
- Avg. Day of Relapse (Range) ([2]; 5 mg/kg i.p., 4 days): 41 (35-46) Day
- # Cured/Total ([2]; 10 mg/kg i.p., 3 days): 0/10
- % Cured ([2]; 10 mg/kg i.p., 3 days): 0%
- Avg. Day of Relapse (Range) ([2]; 10 mg/kg i.p., 3 days): 38 (35-46) Day
- # Cured/Total ([2]; 10 mg/kg i.p., 7 days): 6/10
- % Cured ([2]; 10 mg/kg i.p., 7 days): 60%
- Avg. Day of Relapse (Range) ([2]; 10 mg/kg i.p., 7 days): 124 (35-209) Day
- efficacy in CNS model in words [2]: did not produce complete cures

Compound: O=c1[nH]cnc2c([C@@H]3O[C@H](CO)[C@@H](O)[C@H]3O)c[nH]c12 [9-DINO, 7-beta-D-ribofuranosyl-4-oxo-3H, 5H-pyrrolo (3,2-d) pyrimidine]
- cure rate ([1]; 50-100 mg/kg, EATRO 110): 100%
- curative / active dose range ([1]; EATRO 110, text): 25 to 200 mg/kg
- # Cured/Total [1, 13]: 0/5
- % Cured [1, 13]: 0%
- # Cured/Total [1, 14]: 2/30
- % Cured [1, 14]: 7%
- # Cured/Total [1, 15]: 15/20
- % Cured [1, 15]: 50%
- # Cured/Total [1, 21]: 4/5
- % Cured [1, 21]: 80%
- # Cured/Total [1, 22]: 5/5
- % Cured [1, 22]: 100%
- # Cured/Total [1, 23]: 5/5
- % Cured [1, 23]: 100%
- # Cured/Total [1, 24]: 3/5
- % Cured [1, 24]: 60%
- # Cured/Total [1, 18]: 0/5
- % Cured [1, 18]: 0%
- # Cured/Total [1, 19]: 2/30
- % Cured [1, 19]: 7%
- # Cured/Total [1, 20]: 15/20
- % Cured [1, 20]: 75%
- activity in the acute (short term) EATRO 110 model, in words ([1]; listed as 9-deazainosine): greatest activity; also recorded: most active analog of the two
- activity in the acute (short term) EATRO 110 model, in words ([1]; text summary): greatest activity; also recorded: highly effective; also recorded: active against acute models; also recorded: more effective than sinefungin, allopurinol and allopurinol riboside
- activity in the acute (short term) EATRO 110 model, in words ([1]; text summary, listed as 9DINO): active against an acute infection
- # Cured/Total ([2]; 5 mg/kg i.p., 7 days): 0/5
- % Cured ([2]; 5 mg/kg i.p., 7 days): 0%
- Avg. Day of Relapse (Range) ([2]; 5 mg/kg i.p., 7 days): 41 days
- # Cured/Total ([2]; 10 mg/kg i.p., 7 days): 0/5
- % Cured ([2]; 10 mg/kg i.p., 7 days): 0%
- Avg. Day of Relapse (Range) ([2]; 10 mg/kg i.p., 7 days): 41 days
- # Cured/Total ([2]; 25 mg/kg i.p., 7 days): 1/5
- % Cured ([2]; 25 mg/kg i.p., 7 days): 20%
- Avg. Day of Relapse (Range) ([2]; 25 mg/kg i.p., 7 days): 60 (41-135) Day
- # Cured/Total ([2]; 100 mg/kg i.p., 7 days): 0/20
- % Cured ([2]; 100 mg/kg i.p., 7 days): 0%
- Avg. Day of Relapse (Range) ([2]; 100 mg/kg i.p., 7 days): 49 (35-58) Day
- # Cured/Total ([2]; 250 mg/kg i.p., 7 days): 3/10
- % Cured ([2]; 250 mg/kg i.p., 7 days): 30%
- Avg. Day of Relapse (Range) ([2]; 250 mg/kg i.p., 7 days): 68 (45-86) Day
- efficacy in CNS model in words [2]: did not cure CNS infections
- toxicity in words [3]: neither toxic for mouse L cells
- metabolism in words [4]: nor metabolized to adenosine nucleotide analogues by these cells; also recorded: not metabolized to adenine nucleotide analogs
- activity in words [5]: more active than allopurinol, thipurinol, and their respective nucleosides
- activity in words [6]: more active than allopurinol, thipurinol, and their respective nucleosides
- metabolism in words [7]: metabolized to 9-deaza-ATP
- cleavage into ribose and purine analog moieties [8]: cannot be cleaved into ribose and purine analog moieties
- metabolism in words [9]: can be aminated by T. brucei subsp. and converted to analogs of ATP
